Results on nine compounds are retold here after patent publication US9045525B2, “Amyloid β-protein-specific production-inhibiting polypeptide” (THE DOSHISHA, priority 2012, dated 2015).

The test system of experiment [1] is CHO-K1 cells (7WD10 cells) that stably expressed APP protein. Briefly: Aβ protein production inhibition experiment in 7WD10 cells (sAPPβ, βCTF, Aβ). Format: cell-based. The procedure: (§1) An experiment was conducted wherein #1, #2, and #4 polypeptides were reacted with CHO-K1 cells (7WD10 cells) that stably expressed APP protein and transiently expressed Notch to confirm the production of Aβ protein and cleavage of Notch protein.

The test system of experiment [2] is Notch transiently expressed in CHO-K1 cells (7WD10 cells). The experiment in a line: Cleavage of Notch protein (NICD) in 7WD10 cells. The note with it: for NICD in the cell lysate: polypeptide 25 or 50 μM. Format: cell-based. The procedure:
as §1

Experiment [3] addresses β-secretase against APP (APP-EQ-FLAG) (Homo sapiens, UniProt P05067). The experiment in a line: β-Secretase activity inhibition experiment in vitro, APP-EQ-FLAG substrate. Format: biochemical. The note with it: polypeptide 50 μM, 4 hours, 37° C., Western blotting. The procedure:
A solution containing the polypeptide having APP (APP-EQ-FLAG: SEQ ID NO: 18) as shown in FIG. 5(A) was prepared in such a manner that its final concentration was 50 nM.
To this solution, 9-7 polypeptide, 6-5 polypeptide, #1 polypeptide, #2 polypeptide, #3 polypeptide, #4 polypeptide, #5 polypeptide, #6 polypeptide, #7 polypeptide, #8 polypeptide, #9 polypeptide, and #10 polypeptide were added in such a manner that each solution had the final concentration of 50 μM, followed by reacting with 50 μL β-secretase (0.02 U/μL) for 4 hours. The reaction temperature was 37° C. As a negative control experiment, DMSO was used in place of the 12 types of polypeptides mentioned above.
After completion of the reaction, each sample was subjected to Western blotting using a monoclonal antibody (82E-1) that specifically recognizes the N terminal of APP-EQ-FLAG as shown in FIG. 5(A). Thereafter, the amount of Aβ33-FLAG protein separated by β-secretase was measured.
An experiment was conducted in the same manner as Experimental Example 4 described above except that S4 and #4 polypeptides were used as the polypeptide and the amounts of these polypeptides added were adjusted so that the final concentrations were 1, 5, 10, 20, 50, and 100 μM.
A general note: Immunoblotting shows a protein as a band on a membrane.

Chain of β-secretase against APP (APP-EQ-FLAG) (P05067 with tags, fused parts or gaps): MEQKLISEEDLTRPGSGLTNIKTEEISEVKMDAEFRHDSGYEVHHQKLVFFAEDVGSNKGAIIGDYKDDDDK

Consider `CC(C)C[C@H](NC(=O)[C@H](Cc1ccccc1)C[C@@H](O)[C@H](Cc1ccccc1)NC(=O)OC(C)(C)C)C(=O)N[C@@H](Cc1ccccc1)C(N)=O` [L685458, reference compound], for which, in experiment [1] (L685458 1 μM), the “Aβ protein in the cell culture medium (released Aβ)” value is listed as “decreased”; the “Aβ protein in the cell lysate (intracellular Aβ)” value was “decrease in βCTF (C99) and Aβ protein was also observed”; the “sAPP in the cell lysate” value is given as “such a phenomenon was not observed”; the “βCTF (C99) in the cell lysate” value was “decrease in βCTF (C99) and Aβ protein was also observed”. In experiment [2] (L685458 1 μM), the “amount of NICD in the cell lysate” value was “the amount of NICD was decreased”.

On to “FRBGWVYTYTV (FRXGWVYTYTV; HELM PEPTIDE1{[ac].F.R.[O=C([C@H](Cc1ccc(-c2ccccc2)cc1)N[*:1])[*:2]].G.W.V.Y.T.Y.T.V.[am]}$$$$V2.0; SMILES CC(=O)N[C@@H](Cc1ccccc1)C(=O)N[C@@H](CCCNC(=N)N)C(=O)N[C@@H](Cc1ccc(-c2ccccc2)cc1)C(=O)NCC(=O)N[C@@H](Cc1c[nH]c2ccccc12)C(=O)N[C@H](C(=O)N[C@@H](Cc1ccc(O)cc1)C(=O)N[C@H](C(=O)N[C@@H](Cc1ccc(O)cc1)C(=O)N[C@H](C(=O)N[C@H](C(N)=O)C(C)C)[C@@H](C)O)[C@@H](C)O)C(C)C) [S2, B is L-4,4′-biphenylalanine (Bph) residue]”, for which the “Aβ protein in the cell culture medium” value in experiment [1] (polypeptide final concentration of 50 μM) was “exhibited the Aβ protein production inhibition effect almost to the same level as #4 polypeptide and S4 polypeptide”. Further, in experiment [2], the “NICD in the cell lysate” value is reported as “did not have any influence on NICD”.

“MGLISCDCYCDSTACFCYSCTDF (Ac-MGLISCDCYCDSTACFCYSCTDF-NH2; cysteine pairing not given here) [#3]”: the “cleavage activity of β-secretase against APP (Aβ33-FLAG)” value (“cleavage activity of β-secretase” below) in experiment [3] was “inhibit the cleavage activity of β-secretase against APP more intensely”.

“MGRVNCDCYCIGHYCYCYYCHNI (Ac-MGRVNCDCYCIGHYCYCYYCHNI-NH2; cysteine pairing not given here) [#8]”: the “cleavage activity of β-secretase” value in experiment [3] is “inhibit the cleavage activity of β-secretase against APP more intensely”.

For “MLICDCYCDPRSCICGSCTLV (Ac-MLICDCYCDPRSCICGSCTLV-NH2; cysteine pairing not given here) [L13]”, in experiment [1] (polypeptide 25 or 50 μM), the “Aβ protein in the cell culture medium” value is listed as “did not inhibit the production of Aβ”. The “NICD in the cell lysate” value in experiment [2] is listed as “did not have any affect on NICD”.

As to “MLYTSCDCYCDAFSCFCYSCGPY (Ac-MLYTSCDCYCDAFSCFCYSCGPY-NH2; cysteine pairing not given here) [#6]”, in experiment [3], the “cleavage activity of β-secretase” value was “inhibit the cleavage activity of β-secretase against APP more intensely”.

On to “MPLSICDCYCISTICYCYFCVHR (Ac-MPLSICDCYCISTICYCYFCVHR-NH2; cysteine pairing not given here) [#9]”, for which the “cleavage activity of β-secretase” value in experiment [3] is given as “inhibit the cleavage activity of β-secretase against APP more intensely”.

In the case of “MPTVYCDCYCAYNACYCYYCRSD (Ac-MPTVYCDCYCAYNACYCYYCRSD-NH2; cysteine pairing not given here) [#10]”, the “cleavage activity of β-secretase” value in experiment [3] was “inhibit the cleavage activity of β-secretase against APP more intensely”.

In the case of “MVPVVCDCYCFLSVCFCYSCYIT (Ac-MVPVVCDCYCFLSVCFCYSCYIT-NH2; cysteine pairing not given here) [#5]”, the “cleavage activity of β-secretase” value in experiment [3] is “inhibit the cleavage activity of β-secretase against APP more intensely”.
